Experiments:
[1] = test system: male SD rats; assay: Single oral dose, 24-hour cumulative food intake study in rats (Example 6, first in vivo study); design: species or system rat; details: for Cumulative food intake as compared with vehicle: all indicated time intervals, DA 23.1 mg/kg, DB 26.8 mg/kg
Description: This example compares efficacy of DA versus DB in food inhibition and body weight control. As a background, according to Avau et al., Sci. Rep. […] In our first in vivo study, 45 male SD rats (purchased from Envigo at 8-10 weeks of age) were divided into three groups (15 in each group), which were administered a single oral dose of vehicle (distilled water), 26.8 mg/kg of DB, or 23.1 mg/kg of DA respectively, with a 24-hour observational period, to compare the efficacy of DB versus DA in reducing food intake.

[2] = test system: male C57BL/6N DIO mice; assay: 56-day BID treatment of DIO mice: food consumption and body weight (Example 6, second in vivo study); design: species or system mouse; details: for Body weight gain as compared to vehicle treatment: high-fat diet, oral BID 56 days
Description: In a second in vivo study, 45 male C57BL/6N DIO mice (purchased from Envigo at 18 weeks of age, fed with high-fat diet) were divided into three groups (15 in each group), which were orally administered vehicle (distilled water), 26.8 mg/kg of DB, or 23.1 mg/kg of DA respectively, twice daily (BID), with a 56-day treatment period to compare the efficacy of DB versus DA in food intake reduction and body weight control. Briefly, once weekly, the food weight for each cage was recorded at 0 hour and then 24 hours later, permitting calculation of food consumption for that 24-hour interval. In addition, starting from Day 0, the mice were weighed three times weekly (every 2-3 days).
The mean food consumption per animal for 24-hour intervals at indicated measurement days during the treatment period are shown in Table.
The mean absolute body weight change (in grams) and normalized body weight change (% of baseline) during 56-day treatment period of the three treatment groups are presented in […]. and Table 6.

[3] = test system: C57BL/6NTad mice, diet-induced obesity (DIO) mouse model; assay: 56-day diet-induced obesity (DIO) mouse weight loss study, DA versus DB (Example 3); format: in vivo; details: DA 23.1 mg/kg BID PO
Text: The 56-day study determined the behavioral effects of bitter taste receptor agonists denatonium acetate (DA) compared to denatonium benzoate (DB) in a diet-induced obesity (DIO) mouse model. […] The study duration was a 3-5 day acclimation period +28 day study period and 2-3 day testing period after study. […] The mice were C57BL/6NTad mice at least 12 weeks in age and 15 mice per group (low dose DA, higher dose DA, high dose DB and control). […] Metabolic biomarkers (blood glucose, blood insulin, blood HbA1c) were measured at the beginning and end of the study. The DA, DB or distilled water control was administered per ostium gavage (PO) at a volume of 5 mL/kg body weight.

[4] = test system: rodent obesity models; details: benzoate salt of denatonium; cited from earlier work
[5] = test system: healthy volunteers; details: cited from earlier work
[6] = oral BID, DA 23.1 mg/kg or DB 26.8 mg/kg

CC(=O)[O-].CC[N+](CC)(CC(=O)Nc1c(C)cccc1C)Cc1ccccc1 [DA, Denatonium acetate]
Food intake reduction, DA versus DB ([1]; 23.1 mg/kg DA (57.4 μmol/kg) vs 26.8 mg/kg DB (60 μmol/kg)): a greater food intake reduction
Cumulative food intake as compared with vehicle [1]: reduced cumulative food intake
Body weight gain, DA versus DB ([2]; Day 34 to Day 56, 23.1 mg/kg DA vs 26.8 mg/kg DB): body weight gain was less
Food consumption, DA versus DB ([2]; all indicated measurement days except for Day 42, 23.1 mg/kg DA vs 26.8 mg/kg DB): food consumption was less
Body weight gain as compared to vehicle treatment ([2]; DA 23.1 mg/kg, DB 26.8 mg/kg): less body weight gain
Food consumption compared to vehicle-dosed mice ([2]; oral BID, 56 days, DA 23.1 mg/kg, DB 26.8 mg/kg): nominally decreased food consumption
Mean normalized body weight (% of baseline) on study day 0 [2, 6]: 100.0 % of baseline
Mean normalized body weight (% of baseline) on study day 25 [2, 6]: 100.0 % of baseline
Mean normalized body weight (% of baseline) on study day 28 [2, 6]: 100.0 % of baseline
Mean normalized body weight (% of baseline) on study day 30 [2, 6]: 100.0 % of baseline
Average body weights at the indicated days (FIG. 1) ([3]; 56 days): lowest average body weights
Serum insulin at the end of the 56 day study (FIG. 3) ([3]; versus pre-treatment baseline and vehicle): close to baseline value (i.e., pre-treatment) and noticeably lower compared to the vehicle-treated group

CC[N+](CC)(CC(=O)Nc1c(C)cccc1C)Cc1ccccc1.O=C([O-])c1ccccc1 [DB, benzyl-[2-(2,6-dimethylanilino)-2-oxoethyl]-diethylazanium benzoate]
Cumulative food intake as compared with vehicle [1]: reduced cumulative food intake
Body weight gain as compared to vehicle treatment ([2]; DA 23.1 mg/kg, DB 26.8 mg/kg): less body weight gain
Mean normalized body weight (% of baseline) on study day 0 [2, 6]: 100.0 % of baseline
Mean normalized body weight (% of baseline) on study day 4 ([2]; oral BID, DA 23.1 mg/kg or DB 26.8 mg/kg, day 4): 100.5 % of baseline
Mean normalized body weight (% of baseline) on study day 7 ([2]; oral BID, DA 23.1 mg/kg or DB 26.8 mg/kg, day 7): 99.7 % of baseline
Mean normalized body weight (% of baseline) on study day 9 ([2]; oral BID, DA 23.1 mg/kg or DB 26.8 mg/kg, day 9): 99.4 % of baseline
Mean normalized body weight (% of baseline) on study day 11 ([2]; oral BID, DA 23.1 mg/kg or DB 26.8 mg/kg, day 11): 99.0 % of baseline
Mean normalized body weight (% of baseline) on study day 14 ([2]; oral BID, DA 23.1 mg/kg or DB 26.8 mg/kg, day 14): 99.3 % of baseline
Mean normalized body weight (% of baseline) on study day 16 ([2]; oral BID, DA 23.1 mg/kg or DB 26.8 mg/kg, day 16): 98.0 % of baseline
Mean normalized body weight (% of baseline) on study day 18 ([2]; oral BID, DA 23.1 mg/kg or DB 26.8 mg/kg, day 18): 97.9 % of baseline
Mean normalized body weight (% of baseline) on study day 21 ([2]; oral BID, DA 23.1 mg/kg or DB 26.8 mg/kg, day 21): 99.5 % of baseline
Mean normalized body weight (% of baseline) on study day 23 ([2]; oral BID, DA 23.1 mg/kg or DB 26.8 mg/kg, day 23): 100.5 % of baseline
Mean normalized body weight (% of baseline) on study day 25 [2, 6]: 100.3 % of baseline
Mean normalized body weight (% of baseline) on study day 28 [2, 6]: 100.2 % of baseline
Mean normalized body weight (% of baseline) on study day 30 [2, 6]: 100.5 % of baseline
Mean normalized body weight (% of baseline) on study day 32 ([2]; oral BID, DA 23.1 mg/kg or DB 26.8 mg/kg, day 32): 102.8 % of baseline
Mean normalized body weight (% of baseline) on study day 34 ([2]; oral BID, DA 23.1 mg/kg or DB 26.8 mg/kg, day 34): 103.6 % of baseline
Mean normalized body weight (% of baseline) on study day 36 ([2]; oral BID, DA 23.1 mg/kg or DB 26.8 mg/kg, day 36): 104.1 % of baseline
Mean normalized body weight (% of baseline) on study day 39 ([2]; oral BID, DA 23.1 mg/kg or DB 26.8 mg/kg, day 39): 104.7 % of baseline
Mean normalized body weight (% of baseline) on study day 41 ([2]; oral BID, DA 23.1 mg/kg or DB 26.8 mg/kg, day 41): 105.3 % of baseline
Mean normalized body weight (% of baseline) on study day 46 ([2]; oral BID, DA 23.1 mg/kg or DB 26.8 mg/kg, day 46): 106.0 % of baseline
Mean normalized body weight (% of baseline) on study day 49 ([2]; oral BID, DA 23.1 mg/kg or DB 26.8 mg/kg, day 49): 107.8 % of baseline
Mean normalized body weight (% of baseline) on study day 51 ([2]; oral BID, DA 23.1 mg/kg or DB 26.8 mg/kg, day 51): 107.8 % of baseline
Mean normalized body weight (% of baseline) on study day 53 ([2]; oral BID, DA 23.1 mg/kg or DB 26.8 mg/kg, day 53): 107.4 % of baseline
Mean normalized body weight (% of baseline) on study day 56 ([2]; oral BID, DA 23.1 mg/kg or DB 26.8 mg/kg, day 56): 108.4 % of baseline
Food intake and weight gain in rodent obesity models [4]: suppressed food intake and inhibited weight gain
Nutrient volume tolerance and satiation ([5]; 1 μmol/kg DB): decreased nutrient volume tolerance and increased satiation
Gastric motility, nutrient volume tolerance, hunger ratings and satiation ([5]; intragastric administration): attenuated inter-digestive gastric motility, reduced nutrient volume tolerance, decreased hunger ratings, and increased satiation post meal

Source: patent publication US20220280457A1, “ORAL PHARMACEUTICAL IMMEDIATE RELEASE COMPOSITION AND METHOD OF TREATMENT FOR WEIGHT LOSS” (AARDVARK THERAPEUTICS INC., priority 2019, published 2022)
